According to ChEMBL document CHEMBL1671707, “Mycobacterium tuberculosis dihydrofolate reductase is not a target relevant to the antitubercular activity of isoniazid” (Antimicrob Agents Chemother, 2010):
Values after ≈ are worked out from the molar mass of the structure shown. Active and inactive are the calls of the source. The rule behind the calls is not given here.

How the values were obtained:
[1] = test system: Mycolicibacterium smegmatis; assay: Antimicrobial activity against Mycobacterium smegmatis MC2 5089 harboring pYUB1062 plasmid overexpressing Mycobacterium tuberculosis Rv1484 InhA gene by broth microdilution method; format: functional
[2] = test system: Mycolicibacterium smegmatis; assay: Antimicrobial activity against Mycobacterium smegmatis MC2 5097 harboring pYUB1062 plasmid overexpressing Mycobacterium tuberculosis Rv2763c DfrA gene by broth microdilution method; format: functional
[3] = test system: Mycolicibacterium smegmatis; assay: Antimicrobial activity against Mycobacterium smegmatis MC2 4517 harboring pYUB1062 plasmid overexpressing Mycobacterium tuberculosis Rv3248c SahH gene by broth microdilution method; format: functional
[4] = test system: Mycolicibacterium smegmatis; assay: Antimicrobial activity against Mycobacterium smegmatis MC2 4517 harboring pYUB1062 plasmid overexpressing Mycobacterium tuberculosis Rv0753c MmsA gene by broth microdilution method; format: functional
[5] = test system: Mycolicibacterium smegmatis; assay: Antimicrobial activity against Mycobacterium smegmatis MC2 4517 harboring pYUB1062 plasmid overexpressing Mycobacterium tuberculosis Rv1187 RocA gene by broth microdilution method; format: functional
[6] = test system: Mycolicibacterium smegmatis; assay: Antimicrobial activity against Mycobacterium smegmatis MC2 4517 harboring pYUB1062 plasmid overexpressing Mycobacterium tuberculosis Rv0155 PntAA gene by broth microdilution method; format: functional
[7] = test system: Mycolicibacterium smegmatis; assay: Antimicrobial activity against Mycobacterium smegmatis MC2 4517 harboring pYUB1062 plasmid overexpressing Mycobacterium tuberculosis Rv2623 universal stress protein gene by broth microdilution method; format: functional
[8] = test system: Mycolicibacterium smegmatis; assay: Antimicrobial activity against Mycobacterium smegmatis MC2 4517 harboring pYUB1062 plasmid overexpressing Mycobacterium tuberculosis Rv1996 universal stress protein gene by broth microdilution method; format: functional
[9] = test system: Mycolicibacterium smegmatis; assay: Antimicrobial activity against Mycobacterium smegmatis MC2 4517 harboring pYUB1062 plasmid overexpressing Mycobacterium tuberculosis Rv0468 FadB2 gene by broth microdilution method; format: functional
[10] = test system: Mycolicibacterium smegmatis; assay: Antimicrobial activity against Mycobacterium smegmatis MC2 4517 harboring pYUB1062 plasmid overexpressing Mycobacterium tuberculosis Rv2691 CeoB/TrKA gene by broth microdilution method; format: functional
[11] = test system: Mycolicibacterium smegmatis; assay: Antimicrobial activity against Mycobacterium smegmatis MC2 4517 harboring pYUB1062 plasmid overexpressing Mycobacterium tuberculosis Rv0091 Mtn/Sah gene by broth microdilution method; format: functional, organism-based
[12] = test system: Mycolicibacterium smegmatis; assay: Antimicrobial activity against Mycobacterium smegmatis MC2 4517 harboring pYUB1062 plasmid overexpressing Mycobacterium tuberculosis Rv2858c Aldc gene by broth microdilution method; format: functional
[13] = test system: Mycolicibacterium smegmatis; assay: Antimicrobial activity against Mycobacterium smegmatis MC2 4517 harboring pYUB1062 plasmid overexpressing Mycobacterium tuberculosis Rv1059 unknown gene by broth microdilution method; format: functional
[14] = test system: Mycolicibacterium smegmatis; assay: Antimicrobial activity against Mycobacterium smegmatis MC2 4517 harboring pYUB1062 plasmid overexpressing Mycobacterium tuberculosis Rv0926c unknown gene by broth microdilution method; format: functional
[15] = test system: Mycolicibacterium smegmatis; assay: Antimicrobial activity against Mycobacterium smegmatis MC2 4517 harboring pYUB1062 plasmid overexpressing Mycobacterium tuberculosis Rv3777 probable oxidoreductase gene by broth microdilution method; format: functional
[16] = test system: Mycolicibacterium smegmatis; assay: Antimicrobial activity against Mycobacterium smegmatis MC2 4517 harboring pYUB1062 plasmid overexpressing Mycobacterium tuberculosis Rv2971 probable oxidoreductase gene by broth microdilution method; format: functional, organism-based
[17] = test system: Mycolicibacterium smegmatis; assay: Antimicrobial activity against Mycobacterium smegmatis MC2 4517 harboring pYUB1062 plasmid overexpressing Mycobacterium tuberculosis Rv2766 FabG5 gene by broth microdilution method; format: functional
[18] = test system: Mycolicibacterium smegmatis; assay: Antimicrobial activity against Mycobacterium smegmatis MC2 4517 harboring pYUB1062 plasmid overexpressing Mycobacterium tuberculosis Rv2671 RibD gene by broth microdilution method; format: functional
[19] = test system: Mycobacterium tuberculosis; assay: Antimicrobial activity against Mycobacterium tuberculosis H37Rv harboring pMV261::dfrA plasmid by MTT assay; format: functional, organism-based
[20] = test system: Mycobacterium tuberculosis; assay: Antimicrobial activity against Mycobacterium tuberculosis H37Rv harboring pMV261::InhA plasmid by MTT assay; format: functional, organism-based
[21] = test system: Mycobacterium tuberculosis; assay: Ratio of MIC for Mycobacterium tuberculosis H37RV harboring pMV261::InhA plasmid to MIC for wild-type Mycobacterium tuberculosis H37Rv; format: functional

For `CCc1cc(C(N)=S)ccn1` [ETHIONAMIDE], the MIC [1] was 150 µg/mL (≈ 902 µM), the MIC [2] was 9.4 µg/mL (≈ 56.5 µM) and the MIC [3] was 9.4 µg/mL (≈ 56.5 µM). For the same molecule, the MIC [4] was 9.4 µg/mL (≈ 56.5 µM), the MIC [5] was 9.4 µg/mL (≈ 56.5 µM) and the MIC [6] was 9.4 µg/mL (≈ 56.5 µM). It also gave an MIC [7] of 9.4 µg/mL (≈ 56.5 µM), an MIC [8] of 9.4 µg/mL (≈ 56.5 µM) and an MIC [9] of 9.4 µg/mL (≈ 56.5 µM). The MIC [10] was 9.4 µg/mL (≈ 56.5 µM), the MIC [11] was “inactive” and the MIC [12] was 9.4 µg/mL (≈ 56.5 µM). It also gave an MIC [13] of 9.4 µg/mL (≈ 56.5 µM), an MIC [14] of 9.4 µg/mL (≈ 56.5 µM) and an MIC [15] of 9.4 µg/mL (≈ 56.5 µM). For the same molecule, the MIC [16] was “inactive”, the MIC [17] was 9.4 µg/mL (≈ 56.5 µM) and the MIC [18] was 9.4 µg/mL (≈ 56.5 µM).

Work on `NNC(=O)c1ccncc1` [ISONIAZID] yielded an MIC [1] of 300 µg/mL (≈ 2190 µM), an MIC [2] of 4.7 µg/mL (≈ 34.3 µM) and an MIC [3] of 4.7 µg/mL (≈ 34.3 µM). For the same molecule, the MIC [4] was 4.7 µg/mL (≈ 34.3 µM), the MIC [5] was 4.7 µg/mL (≈ 34.3 µM) and the MIC [6] was 4.7 µg/mL (≈ 34.3 µM). It also gave an MIC [7] of 4.7 µg/mL (≈ 34.3 µM), an MIC [8] of 4.7 µg/mL (≈ 34.3 µM) and an MIC [9] of 4.7 µg/mL (≈ 34.3 µM). For the same molecule, the MIC [10] was 4.7 µg/mL (≈ 34.3 µM), the MIC [11] was “inactive” and the MIC [12] was 4.7 µg/mL (≈ 34.3 µM). It also gave an MIC [13] of 4.7 µg/mL (≈ 34.3 µM), an MIC [14] of 4.7 µg/mL (≈ 34.3 µM) and an MIC [15] of 4.7 µg/mL (≈ 34.3 µM). For the same molecule, the MIC [16] was “inactive”, the MIC [17] was 4.7 µg/mL (≈ 34.3 µM) and the MIC [18] was 4.7 µg/mL (≈ 34.3 µM). The Activity [19] was “Active”, the Activity [20] was “inactive” and the Ratio [21] was 20.
